Values after ≈ are worked out from the molar mass of the structure shown.
Columns and labels:
Type in all cases: functional
Enterococcus faecium [1] = experiment: Antimicrobial activity against Enterococcus faecium BM4458 harboring plasmid PAT831 carrying P2 vanSD 6bp330 aac (6)-aph (2) mutant gene after 24 hrs; conditions: BM4458, 24 h
Enterococcus faecium [2] = experiment: Antimicrobial activity against vancomycin and teicoplanin resistant Enterococcus faecium BM4653 after 24 hrs; conditions: BM4653, 24 h
Enterococcus faecium [3] = experiment: Antimicrobial activity against Enterococcus faecium BM4458 harboring plasmid PAT832 carrying P2 vanSD (K308Q I309V R335Q) aac (6)-aph (2) mutant gene after 24 hrs; conditions: BM4458, 24 h
Enterococcus faecium [4] = experiment: Antimicrobial activity against vancomycin and teicoplanin resistant Enterococcus faecium BM4656 after 24 hrs; conditions: BM4656, 24 h
Enterococcus faecalis = experiment: Antimicrobial activity against vancomycin and teicoplanin resistant Enterococcus faecalis BM4654 after 24 hrs; conditions: BM4654, 24 h
Enterococcus faecium [5] = experiment: Antimicrobial activity against Enterococcus faecium BM4458 harboring plasmid PAT830 carrying P2 vanSD (V67A) aac (6)-aph (2) mutant gene after 24 hrs; conditions: BM4458, 24 h
Enterococcus faecium [6] = experiment: Antimicrobial activity against vancomycin and teicoplanin resistant Enterococcus faecium NEF1 after 24 hrs; conditions: NEF1, 24 h
Enterococcus faecium [7] = experiment: Antimicrobial activity against vancomycin and teicoplanin resistant Enterococcus faecium BM4339 after 24 hrs; conditions: BM4339, 24 h
Enterococcus faecium [8] = experiment: Antimicrobial activity against Enterococcus faecium BM4458 after 24 hrs; conditions: BM4458, 24 h
Enterococcus avium = experiment: Antimicrobial activity against vancomycin and teicoplanin resistant Enterococcus avium BM4655 after 24 hrs; conditions: BM4655, 24 h
Enterococcus faecium [9] = experiment: Antimicrobial activity against Enterococcus faecium BM4458 harboring plasmid PAT833 carrying P2 vanSD (G340S) aac (6)-aph (2) mutant gene after 24 hrs; conditions: BM4458, 24 h

Structure (SMILES)	MIC (Enterococcus faecium [1]) [µg/mL]	MIC (Enterococcus faecium [2]) [µg/mL]	MIC (Enterococcus faecium [3]) [µg/mL]	MIC (Enterococcus faecium [4]) [µg/mL]	MIC (Enterococcus faecalis) [µg/mL]	MIC (Enterococcus faecium [5]) [µg/mL]	MIC (Enterococcus faecium [6]) [µg/mL]	MIC (Enterococcus faecium [7]) [µg/mL]	MIC (Enterococcus faecium [8]) [µg/mL]	MIC (Enterococcus avium) [µg/mL]	MIC (Enterococcus faecium [9]) [µg/mL]
CC(=O)N[C@@H]1[C@H](Oc2c3cc4cc2Oc2ccc(cc2Cl)[C@@H](O[C@@H]2O[C@@H](CO)[C@@H](O)[C@H](O)[C@@H]2NC(C)=O)[C@@H]2NC(=O)[C@H](NC(=O)[C@@H]4NC(=O)[C@H]4NC(=O)[C@@H](Cc5ccc(c(Cl)c5)O3)NC(=O)[C@H](N)c3ccc(O)c(c3)Oc3cc(O)cc4c3)c3ccc(O)c(c3)-c3c(O[C@H]4O[C@H](CO)[C@@H](O)[C@@H](O)[C@@H]4O)cc(O)cc3[C@@H](C(=O)O)NC2=O)O[C@@H](CO)[C@@H](O)[C@@H]1O	0.5 (≈ 0.283 µM)	4 (≈ 2.26 µM)	0.5 (≈ 0.283 µM)	4 (≈ 2.26 µM)	0.5 (≈ 0.283 µM)	0.5 (≈ 0.283 µM)	64 (≈ 36.2 µM)	4 (≈ 2.26 µM)	0.5 (≈ 0.283 µM)	4 (≈ 2.26 µM)	0.5 (≈ 0.283 µM)
CN[C@H](CC(C)C)C(=O)N[C@H]1C(=O)N[C@@H](CC(N)=O)C(=O)N[C@H]2C(=O)N[C@H]3C(=O)N[C@H](C(=O)N[C@H](C(=O)O)c4cc(O)cc(O)c4-c4cc3ccc4O)[C@H](O)c3ccc(c(Cl)c3)Oc3cc2cc(c3O[C@@H]2O[C@H](CO)[C@@H](O)[C@H](O)[C@H]2O[C@H]2C[C@](C)(N)[C@H](O)[C@H](C)O2)Oc2ccc(cc2Cl)[C@H]1O [VANCOMYCIN]	4 (≈ 2.76 µM)	32 (≈ 22.1 µM)	4 (≈ 2.76 µM)	32 (≈ 22.1 µM)	16 (≈ 11 µM)	4 (≈ 2.76 µM)	512 (≈ 353 µM)	64 (≈ 44.2 µM)	4 (≈ 2.76 µM)	32 (≈ 22.1 µM)	4 (≈ 2.76 µM)
